Measurements published in patent publication US12534704B2, “Organ extracellular matrix-derived scaffold for culture and transplantation of organoid and method of preparing the same” (CELLARTGEN INC., priority 2020, dated 2026).

Tests used:
Assay type in all cases: cell-based
[1] = system: mouse cholangiocyte-derived liver organoids (CLOs); test: Liver fibrosis model with mouse CLO
Method: For disease modeling using an LEM-based liver organoid, TGF-beta was screened at each concentration and the possibility of inducing liver fibrosis was checked. A model was induced using mouse cholangiocyte-derived liver organoids (CLOs) cultured for 7 days. To construct a liver fibrosis model, the organoids were treated with TGF-β at each concentration for 48 hours and observed.

[2] = system: human cholangiocyte-derived liver organoids (hCLOs); test: Liver fibrosis model with hCLO; conditions: hCLO in LEM, 3 days
Method: Meanwhile, for disease modeling using human cholangiocyte-derived liver organoids (hCLOs) cultured in the LEM, TGF-β was tested at each concentration and the organoids were treated with the most appropriate concentration of TGF-β (80 ng/ml). Then, the possibility of inducing liver fibrosis was checked.
To verify a liver fibrosis model, SMA (Smooth Muscle Actin) was used for staining to determine the accumulated extracellular matrix (ECM) around the organoids. Through this experiment, it was verified that a human liver fibrosis model can be constructed using a liver organoid cultured in the LEM scaffold (FIG. 79B).

mouse lung organoid = test: Lung fibrosis model with mouse lung organoid
Method: Specifically, lung organoids were treated for 3 days at respective concentrations on day 4 of culture and analyzed on day 7. A lung organoid that was not treated with TGF-β (NT, No treatment) was used as a control group.

human lung organoid = test: Lung fibrosis model with human lung organoid
Method: Specifically, human lung organoids cultured in respective scaffolds were treated with TGF-β for 3 days and then analyzed.

TGF-β
expression of liver fibrosis markers ([1]; 4 ng/ml TGF-β, qPCR): highest | liver organoid morphology and growth ([1]; TGF-β each concentration, 48 hours): changed in morphology and did not grow well | cholangiocyte marker expression ([1]; organoids cultured in LEM): significantly decreased | fibrosis marker expression ([1]; organoids cultured in LEM): greatly increased | liver organoid morphology and growth [2]: deformed in morphology and did not grow well | SMA and Col1 expression (immunostaining) (mouse lung organoid): increase as the TGF-β treatment concentration increases | Col1a2 expression (mouse lung organoid; 40 ng/ml): increased statistically significantly | lung organoid shape and growth (mouse lung organoid; TGF-β each concentration, 3 days): changed in shape and did not grow well | SMA, COL1 and VIM expression (immunostaining) (human lung organoid; 3 days after treatment): increased | ACTA2, COL1A2 and TNF-α expression (human lung organoid; 3 days, quantitative PCR): significantly increased
